A short description of experiment [1]: prion protein 5' UTR mRNA inhibitors – cell-based, plate reader, cherry-picked samples, dose response (AID 504539). As to conditions: Cell-based prion protein 5' UTR reporter, plate reader; at 5 µM (top of the series).
The test system of experiment [2] is Cell-based prion protein 5' UTR reporter, plate reader. The description is as above.

Consider twelve compounds from PubChem BioAssay AID504539 (Broad Institute, 2011).

The structures appear in SMILES notation. The source made the active and inactive calls. How the calls were made is not given here.

In the case of `COc1ccc(Nc2nc(-c3c(C)nc4ncccn34)cs2)cc1`, in experiment [1], the activity change, negative = inhibition was -31.6% (inactive).

Take `CCOc1ccc(C2=Nn3c(nnc3-c3ccccc3OC)SC2)cc1`: the activity change, negative = inhibition in experiment [1] was -38.1% (inactive).

In the case of `Cn1nnc2cc(C(=O)NC3CCCCC3)ccc21`, the activity change, negative = inhibition in experiment [1] is 46.3% (inactive).

On to `CCc1ccc(/C=C2\SC(=S)N(CCCC(=O)Nc3ccccn3)C2=O)cc1`, for which, in experiment [1], the activity change, negative = inhibition was -23.5% (inactive).

For the compound `O=C(NN1C(=O)C2C3C=CC(C4CC34)C2C1=O)c1ccc(Br)cc1` (configuration not stated), the activity change, negative = inhibition in experiment [1] is 108% (inactive).

Consider `N#Cc1cn(C2OC(CO)C(O)C2O)c2ncnc(N)c12` (configuration not stated), for which the activity change, negative = inhibition in experiment [1] is -30.1% (inactive).

Consider `O=C(NNC(=O)c1cccs1)c1ccco1`, for which, in experiment [1], the activity change, negative = inhibition was 6.33% (inactive).

For the compound `CC/C=C/CC(=O)N[C@@H](c1ccccc1)[C@@H](O)C(=O)O[C@H]1C[C@@]2(O)[C@@H](OC(=O)c3ccccc3)C3[C@](C)(C(=O)[C@H](OC(C)=O)C(=C1C)C2(C)C)[C@@H](O)C[C@H]1OC[C@@]31OC(C)=O` (some centres not stated), in experiment [2], the half-maximal activity concentration (AC50) was 368 nM.

As for `Cc1ccc(S(=O)(=O)Nc2nc3ccccc3s2)cc1[N+](=O)[O-]`, the activity change, negative = inhibition in experiment [1] was 25.2% (inactive).

For the compound `COc1ccccc1-c1nnc2n1N=C(c1ccc(O)c(O)c1)CS2`, the concentration at half-maximal activity (AC50) in experiment [2] is 206 nM.

As for `COc1cc2c(c(OC)c1OC)-c1ccc(OC)c(=O)cc1[C@@H](N(C)CC#CCO)CC2`, the half-maximal activity concentration (AC50) in experiment [2] was 235 nM.

On to `COc1cccc2c1C(=O)c1c(O)c3c(c(O)c1C2=O)CC(O)(C(=O)CO)CC3OC1CC(N(C)C)C(O)C(C)O1` (configuration not stated), for which the AC50 in experiment [2] was 130 nM.

A word on the AC50: it is the concentration giving half of the maximal activity seen.
